Data reported in ChEMBL document CHEMBL6074624, “FDA-approved small molecule kinase inhibitors for cancer treatment (2001-2015): Medical indication, structural optimization, and binding mode Part I” (Bioorg Med Chem, 2024).
Values after ≈ are worked out from the molar mass of the structure shown. Values belong to the compound of their own block, whether it stands above or below them.

Key:
[1] = Clearance in Sprague-Dawley rat at 5 mg/kg, po; assay type: ADME, organism-based; settings: in vivo
MDA-MB-231 = assay: Antitumor activity against human MDA-MB-231 cells xenografted in athymic nude mouse assessed as tumor growth inhibition at 20 mg/kg, po administered once daily for 11 days relative to control; assay type: functional; settings: MDA-MB-231, 264 h, time 11 day, read-out: TGI
KARPAS-299 [2] = assay: cells; settings: Homo sapiens, KARPAS-299, 24 h
KARPAS-299 [3] = assay: Antitumor activity against ALK positive human KARPAS-299 cells xenografted in RNU nude rat assessed as tumor growth inhibition at 6.25 mg/kg, po administered for 2 weeks relative to control; assay type: functional; settings: KARPAS-299, 336 h, read-out: TGI
KARPAS-299 [4] = assay: Antitumor activity against ALK positive human KARPAS-299 cells xenografted in RNU nude rat assessed as tumor growth inhibition at 12.5 mg/kg, po administered for 2 weeks relative to control; assay type: functional; settings: KARPAS-299, 336 h, read-out: TGI
KARPAS-299 [5] = assay: Antitumor activity against ALK positive human KARPAS-299 cells xenografted in RNU nude rat assessed as tumor growth inhibition at 25 mg/kg, po administered for 2 weeks relative to control; assay type: functional; settings: KARPAS-299, 336 h, read-out: TGI
NCI-H2228 [6] = assay: Antitumor activity against ALK positive human NCI-H2228 cells xenografted in RNU nude rat assessed as tumor growth inhibition at 5 mg/kg, po administered for 2 weeks relative to control; assay type: functional; settings: NCI-H2228, 336 h, read-out: TGI
NCI-H2228 [7] = assay: Antitumor activity against ALK positive human NCI-H2228 cells xenografted in RNU nude rat assessed as tumor growth inhibition at 10 mg/kg, po administered for 2 weeks relative to control; assay type: functional; settings: NCI-H2228, 336 h, read-out: TGI
Caco-2 = assay: Cytotoxicity against human Caco-2 cells assessed as reduction in cell viability; assay type: functional, cell-based
[8] = molecular target: Dual specificity mitogen-activated protein kinase kinase 1 (Homo sapiens, UniProt Q02750); assay: Inhibition of MEK1 (unknown origin) phosphorylation by [gamma-33P]-ATP assay
Dual specificity mitogen-activated protein kinase kinase 1, sequence (Q02750 whole entry): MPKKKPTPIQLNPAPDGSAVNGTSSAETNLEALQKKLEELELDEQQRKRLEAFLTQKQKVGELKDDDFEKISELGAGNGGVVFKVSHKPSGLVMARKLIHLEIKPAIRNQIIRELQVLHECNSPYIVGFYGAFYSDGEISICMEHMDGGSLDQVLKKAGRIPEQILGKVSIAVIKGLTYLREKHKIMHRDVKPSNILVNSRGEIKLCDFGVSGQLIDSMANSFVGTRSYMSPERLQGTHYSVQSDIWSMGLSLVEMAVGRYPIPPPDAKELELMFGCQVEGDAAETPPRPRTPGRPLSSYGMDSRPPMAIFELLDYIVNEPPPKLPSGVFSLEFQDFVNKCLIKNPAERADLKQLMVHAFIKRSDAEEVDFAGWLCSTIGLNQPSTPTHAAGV

[9] = Antiproliferative activity against human MDA-MB-231T cells assessed as reduction in cell viability; assay type: functional, cell-based
[10] = Antitumor activity against human MDA-MB-231T cells xenografted in mouse assessed as tumor growth inhibition at 1 mg/kg, po relative to control; assay type: functional; settings: read-out: TGI
[11] = Antitumor activity against human MDA-MB-231T cells xenografted in mouse assessed as tumor growth inhibition at 3 mg/kg, po relative to control; assay type: functional; settings: read-out: TGI
[12] = Oral bioavailability in human at 5 mg/kg; assay type: ADME, organism-based; settings: in vivo
[13] = Intrinsic clearance in rat; assay type: ADME
SK-MEL-28 = assay: Cytotoxicity against human SK-MEL-28 cells assessed as reduction in cell viability after 24 hrs by MTT assay; assay type: functional, cell-based; settings: SK-MEL-28, 24 h
Ramos = assay: cells; settings: Homo sapiens
Jurkat = assay: cells; settings: Homo sapiens
[14] = Toxicity in ICR mouse assessed as maximal tolerated dose measured for 7 days; settings: in vivo, time 7 day
ACHN = assay: Antiproliferative activity against human ACHN cells assessed as reduction in cell viability measured after 48 hrs by SRB assay; assay type: functional, cell-based
HT-29 = assay: Antiproliferative activity against human HT-29 cells assessed as reduction in cell viability after 72 hrs by MTS assay; assay type: functional, cell-based; settings: HT-29, 72 h
[15] = Solubility of compound in PBS at pH 7.4; assay type: physicochemical
[16] = Permeability of compound in human Caco-2 cells […]; assay type: ADME, cell-based; settings: read-out: permeability
[17] = AUC in human; assay type: ADME
[18] = Oral bioavailability in human; assay type: ADME, organism-based; settings: in vivo
A549 [19] = assay: Antitumor activity against human A549 cells harboring KRAS G12S mutant xenografted in athymic nude mouse assessed as tumor growth inhibition at 5 mg/kg, po administered once daily for 21 days relative to control; assay type: functional; settings: A549, 504 h, time 21 day, read-out: TGI
A549 [20] = assay: Antitumor activity against human A549 cells harboring KRAS G12S mutant xenografted in athymic nude mouse assessed as tumor growth inhibition at […], po administered once daily for 21 days relative to control; assay type: functional; settings: A549, 504 h, dose 2.5 mg/kg, time 21 day, read-out: TGI
A549 [21] = assay: Antitumor activity against human A549 cells harboring KRAS G12S mutant xenografted in athymic nude mouse assessed as tumor growth inhibition at 0.5 mg/kg, po administered once daily for 21 days relative to control; assay type: functional; settings: A549, 504 h, time 21 day, read-out: TGI
A549 [22] = assay: Antitumor activity against human A549 cells harboring KRAS G12S mutant xenografted in athymic nude mouse assessed as tumor growth inhibition at 0.1 mg/kg, po administered once daily for 21 days relative to control; assay type: functional; settings: A549, 504 h, time 21 day, read-out: TGI

Structure (SMILES): O=C(c1ccc(F)c(F)c1Nc1ccc(I)cc1F)N1CC(O)C1
- CL [1]: 8.324 mL/min/kg

Structure (SMILES): Cc1cc(Nc2ncc(Cl)c(Nc3ccccc3S(=O)(=O)C(C)C)n2)c(OC(C)C)cc1C1CCNCC1 [CERITINIB]
- inhibition in vivo at 6.25 mg/kg (KARPAS-299 [3]): 74%
- inhibition in vivo at 12.5 mg/kg (KARPAS-299 [4]): 30%
- inhibition in vivo at 25 mg/kg (KARPAS-299 [5]): 33%
- inhibition in vivo at 5 mg/kg (NCI-H2228 [6]): 67%
- inhibition in vivo at 10 mg/kg (NCI-H2228 [7]): 2%

Structure (SMILES): O=C(NOCC1CC1)c1ccc(F)c(F)c1Nc1ccc(I)cc1Cl [CI-1040]
- IC50 (Caco-2): 35 nM

Structure (SMILES): CC(C)(C)c1nc(-c2cccc(NS(=O)(=O)c3c(F)cccc3F)c2F)c(-c2ccnc(N)n2)s1 [DABRAFENIB]
- clearance [13]: 19 mL/min/kg
- IC50 (SK-MEL-28): 3 nM

Structure (SMILES): C=CC(=O)N1CCC[C@@H](n2nc(-c3ccc(Oc4ccccc4)cc3)c3c(N)ncnc32)C1 [IBRUTINIB]
- IC50 (Ramos): 40 nM
- IC50 (Jurkat): 470 nM

Structure (SMILES): O=C(NOC[C@H](O)CO)c1ccc(F)c(F)c1Nc1ccc(I)cc1F [MIRDAMETINIB]
- MTD at 168 h [14]: 25 mg/kg

The next lines start with results.

- IC50 (KARPAS-299 [2]): 12.8 nM
Structure (SMILES): CCc1cc2c(cc1N1CCC(N3CCOCC3)CC1)C(C)(C)c1[nH]c3cc(C#N)ccc3c1C2=O [ALECTINIB]
- inhibition in vivo at 20 mg/kg (MDA-MB-231): 119%

- IC50 [8]: 6.6 nM
- bioavailability [12]: 77%
Structure (SMILES): O=C(c1ccc(F)c(F)c1Nc1ccc(I)cc1F)N1CC(O)([C@@H]2CCCCN2)C1 [COBIMETINIB]
- IC50 [9]: 0.2 nM
- inhibition in vivo at 1 mg/kg [10]: 60%
- inhibition in vivo at 3 mg/kg [11]: 93%

- IC50 (ACHN): 9.8 nM
- IC50 (HT-29): 0.57 nM
- solubility [15]: 5.3 µM (≈ 3.26 µg/mL)
- Papp [16]: 26 ×10⁻⁶ cm/s
- AUC [17]: 88.3 µM·h
- bioavailability [18]: 30%
Structure (SMILES): CC(=O)Nc1cccc(-n2c(=O)n(C3CC3)c(=O)c3c(Nc4ccc(I)cc4F)n(C)c(=O)c(C)c32)c1 [TRAMETINIB]
- inhibition in vivo at 5 mg/kg (A549 [19]): 92%
- inhibition in vivo at […] (A549 [20]): 87%
- inhibition in vivo at 0.5 mg/kg (A549 [21]): 62%
- inhibition in vivo at 0.1 mg/kg (A549 [22]): 58%
